“And” between values parts separate entries of the source, which are not always exact repeats. Identical values can stand only once. The source made the active and inactive calls.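 Rule for the calls: active = compounds giving half or more protection of infected cells from virus-caused growth loss, again on retest; inactive = the rest.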 Where a SMILES comes first, the peptide text is derived from it. Bridges are numbered along the chain shown (N, C = ends). Roman numbers before positions name the chains, in order.
Test system: CEM cells HIV-1 protection, formazan growth assay
Test: NCI AIDS Antiviral Assay
Settings: for IC50: measured here: growth of uninfected CEM cells
How it was run: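 Screen of anti-HIV-1 activity in human CEM cells using a formazan-based growth measurement at five drug concentrations. Hits with 50% or greater protection were repeated, and confirmation required reproducible complete protection.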

CCN(CC)c1ccc(C(=O)c2ccccc2C(=O)O)c(O)c1
outcome: inactive

O/N=c1/sc2ccccc2nc1-c1ccccc1
EC50: > 200 µM
IC50: > 200 µM

Cc1ccc(Oc2nc(Cl)nc(Oc3ccc(C)cc3)n2)cc1
EC50: > 200 µM
IC50: > 200 µM

CCC1=[N+]([O-])C(C)(C)NC1(C)C
EC50: > 200 µM
IC50: > 200 µM

CSc1ncnc2c1cnn2CCCCO
EC50: > 200 µM
IC50: > 200 µM

CC(C)=CCN1c2ccccc2NC(=O)CC1C (stereo not drawn)
EC50: 7.94 µM
IC50: 91.2 µM

O=C1CCSC2=NCCN12
outcome: inactive

Nc1ccc2cc3ccc(N)cc3nc2c1
EC50: > 200 µM
IC50: 1.12 µM and 0.692 µM

O=C1C(Cl)C(c2cc(Br)cc(Br)c2O)N1n1cnc2ccccc2c1=O (stereo not drawn)
EC50: > 10.5 µM
IC50: > 10.5 µM

CC(C)(c1ccc(OC#N)cc1)c1ccc(OC#N)cc1
EC50: > 67.6 µM
IC50: > 67.6 µM

O=C(O)C1(P(=O)(O)O)CC1
outcome: inactive

CN1C(=O)C23CCCN2C(=O)C1(C)SC(=N)S3 (stereo not drawn)
EC50: > 200 µM
IC50: > 200 µM

C/C(O)=c1\cc(C#N)c(=C(C#N)C#N)nc1C
outcome: inactive

CC(C)OP(=O)(OC(C)C)C(Nc1cccc(C(F)(F)F)c1)c1ccccc1 (stereo not drawn)
EC50: > 200 µM
IC50: 33.9 µM

CC1=CC2OC3CC4OC(=O)/C=C/C=C/C(=O)OCCC(C)C(O)C(=O)OCC2(CC1O)C4(C)C31CO1 (stereo not drawn)
EC50: > 0.2 µM
IC50: 0.00347 µM

CC(NC(=O)/C(C#N)=C/c1ccc2[nH]ccc2c1)c1ccccc1 (stereo not drawn)
EC50: > 42.7 µM
IC50: > 42.7 µM

CCOC(=O)Cc1nc2c(N)ncnc2n1C1OC(COC(C)=O)C(OC(C)=O)C1OC(C)=O (stereo not drawn)
EC50: > 200 µM
IC50: > 200 µM

COc1cc(OC)c(/C=N\Nc2nc3ccccc3c(=O)n2-c2ccccc2)c(OC)c1
EC50: > 50.1 µM
IC50: 37.2 µM

N#Cc1c(-c2ccc(Cl)cc2)c(C#N)c(=O)n(NS(=O)(=O)c2ccccc2)c1-c1ccccc1
EC50: > 151 µM
IC50: 32.4 µM

O=C(N=C1[Se]C(=Nc2ccccc2)C(=Nc2ccccc2)N1c1ccccc1)c1ccc([N+](=O)[O-])cc1
EC50: > 200 µM
IC50: > 200 µM

Cc1sc(C)c2c1C(=O)CC2N (stereo not drawn)
EC50: > 200 µM
IC50: 9.77 µM

CCc1c(C)[nH]c2c1/C(=N/N=C1\CCCc3[nH]c(C)c(CC)c31)CCC2
outcome: inactive

CCC(C)C(NC(=O)C(CCCC(N)=O)NC(=O)CNC(=O)C(NC(=O)C(NC(=O)C(NC(=O)C(Cc1ccccc1)NC(=O)C(C)NC(=O)C(CCCNC(=N)N)NC(=O)CNC(=O)C1CCCN1C(=O)CNC(=O)C(CCCNC(=N)N)NC(=O)C(CCCC(N)=O)NC(=O)C(NC(=O)C(CCCNC(=N)N)NC(=O)C(NC(=O)C(COC1OC(CO)C(O)C(O)C1NC(C)=O)NC(=O)C(CCCCN)NC(=O)C(CCCNC(=N)N)NC(=O)C(NC(=O)C(CC(N)=O)NC(=O)C(N)CC(N)=O)C(C)O)C(C)CC)C(C)CC)C(C)C)C(C)O)C(C)CC)C(=O)NCC(N)=O (stereo not drawn)
EC50: > 50.1 µM
IC50: > 50.1 µM

CCCCOC(=S)SSC(=S)OCCCC
EC50: > 56.2 µM
IC50: 11.5 µM

c1ccc2cc3c(cc2c1)Cn1c-3nc2ccccc21
EC50: > 200 µM
IC50: > 200 µM

NC(=O)OCC(COc1ccc(Cl)cc1)OC(=O)c1ccccc1Cl (stereo not drawn)
EC50: > 93.3 µM
IC50: 70.8 µM

Cc1cc(S(=O)(=O)Nc2nc(N)nc(N3CCCCC3)n2)c(S)cc1Cl
EC50: > 200 µM
IC50: > 200 µM

Oc1c(O)c(Cc2ccccc2)c(Cc2ccccc2)c(Cc2ccccc2)c1Cc1ccccc1
EC50: > 200 µM
IC50: 32.4 µM

NC1=CN2c3ccccc3N(CC(=O)O)C2C=C1 (stereo not drawn)
EC50: > 200 µM
IC50: > 200 µM

N#CCC(=O)N/N=C1/C(=O)N(c2ccc(Cl)cc2)C(=O)C(=O)C1c1nc2ccccc2s1 (stereo not drawn)
outcome: inactive

O=C1NC(=O)C(CCCCO)N1 (stereo not drawn)
outcome: inactive

CC(=O)c1ccc2c(c1)oc(=O)n2CCN(C)C
EC50: > 200 µM
IC50: 141 µM

CCOC(=O)C1=NN(c2ccc(C)cc2)C2=CC(C)=NN(C)C(=S)N21
EC50: > 200 µM
IC50: > 200 µM

c1ccc(CN2COc3ccc4c5c(ccc4c3C2)OCN(Cc2ccccc2)C5)cc1
EC50: > 2.45 µM
IC50: > 2.45 µM

COc1cc(C2c3cc4c(cc3C(O)[C@H]3COC(=O)C23)OCO4)cc(OC)c1O (stereo partly drawn)
EC50: > 200 µM
IC50: 0.0631 µM

O=C(CN1CCCCC1)c1ccc2c(c1)Cc1cc(C(=O)CN3CCCCC3)ccc1O2
EC50: > 70.8 µM
IC50: 33.1 µM

O=C(O)c1cc(C(=CCCBr)c2cc(Cl)c(O)c(C(=O)O)c2)cc(Cl)c1O
EC50: 117 µM
IC50: 219 µM

CC(/C(=N\Nc1ccccc1)c1ccc(O)cc1)C1C(=O)Oc2ccccc21 (stereo not drawn)
outcome: inactive

O=C1CCCc2cc3c(cc21)CC1(C3)Cc2ccc3c(c2C1)C(=O)CCC3 (stereo not drawn)
EC50: > 200 µM
IC50: 16.2 µM

COc1cc2nc3c(nc2cc1OC)-c1ccccc1C3=O
EC50: 3.02 µM
IC50: 9.33 µM

CN1C(=O)C[N+]([O-])=C(c2ccccc2)c2cc(Cl)ccc21
EC50: > 120 µM
IC50: > 120 µM

COc1ccc(NC(=O)C(=O)c2c(O)c3ccc(O)cc3oc2=O)c([N+](=O)[O-])c1
EC50: > 447 µM
IC50: 229 µM

N=C1CSC2=NC3=C(CCC/C3=C\c3ccccc3)C(c3ccccc3)N12 (stereo not drawn)
EC50: > 18.6 µM
IC50: > 18.6 µM

COc1ccc(Cl)c2c1[nH]c1nc3nc4cc(Cl)ccc4n3nc12
EC50: > 100 µM
IC50: > 100 µM

Cc1ccc([P+](Cc2ccc([N+](=O)[O-])cc2)(c2ccc(C)cc2)c2ccc(C)cc2)cc1
EC50: > 200 µM
IC50: 3.63 µM

Cc1cccc2c(=O)c3cccc([C@@H](C)C(=O)O)c3oc12
EC50: > 200 µM
IC50: 67.6 µM

O=C(CNC(=O)c1ccc(Cl)cc1)NO
EC50: > 200 µM
IC50: > 200 µM

CNC(=O)c1cn(C2OC(CO)C(O)C2O)c2ncnc(N)c12 (stereo not drawn)
EC50: > 2 µM
IC50: 1.2 µM

CC(=O)O[C@]1(C(C)=O)CC[C@H]2[C@@H]3C[C@H](C)C4=CC(=O)C=C[C@]4(C)[C@@]3(F)[C@@H](O)C[C@@]21C
outcome: inactive

c1ccc(-c2nc(-c3ccccc3SSc3ccccc3-c3nc(-c4ccccc4)nn3-c3ccccc3)n(-c3ccccc3)n2)cc1
EC50: > 100 µM
IC50: > 100 µM

O=Nc1ccc(O)cc1
EC50: > 20 µM
IC50: 3.89 µM

CC(CN)OC12CC3CC(CC(C3)C1)C2 (stereo not drawn)
EC50: > 200 µM
IC50: 105 µM

Cc1ccc2[nH]c3[nH]c(=O)[nH]c(=O)c3c2c1
EC50: > 200 µM
IC50: > 200 µM

O=C(O)C1(Cc2ccc3c(c2)CCC3)Cc2cc3c(cc2C1)CCC3
EC50: > 200 µM
IC50: 35.5 µM

C=CCn1c(=S)[nH]c2c(Cl)cc(Cl)cc2c1=O
EC50: > 200 µM
IC50: 107 µM

CC(C)Cc1ccc(C(C)C(=O)O)cc1 (stereo not drawn)
EC50: > 1200 µM
IC50: 389 µM

S=c1nc(C(c2ccccc2)c2ccccc2)[nH][nH]1
EC50: > 135 µM
IC50: > 135 µM

CC(C)[Si](OC12CCC(CC1O)CC2C(=O)O)(C(C)C)C(C)C (stereo not drawn)
EC50: > 200 µM
IC50: 22.4 µM

c1ccc(CCn2cncn2)cc1
EC50: > 1200 µM
IC50: > 1200 µM

COC1OC(C)/C(=N/O)C2OC(C)(C)OC12 (stereo not drawn)
EC50: > 1070 µM
IC50: > 1070 µM

COC1=CC(=O)c2c(cc3c(c2O)-c2c(OC)cc4cc5c(c(O)c4c2OC(=O)CC(C)(O)C3)C(=O)CC(C)(O)C5)C1=O (stereo not drawn)
EC50: > 100 µM
IC50: 5.37 µM

O=C(Nc1ccc(Cl)c(Cl)c1)C(=O)C(C(=O)c1ccccc1-c1ccccc1)C1OC(=O)c2ccccc21 (stereo not drawn)
EC50: > 66.1 µM
IC50: 29.5 µM

CC1=NC2c3c(-c4ccc(Cl)cc4)cn(-c4ccc(C)cc4)c3N=CN2N1 (stereo not drawn)
EC50: > 100 µM
IC50: > 100 µM

N#CC1=CNc2ccccc2N=C1N
EC50: > 200 µM
IC50: > 200 µM

CC1CCOn2c1nc1ccccc1c2=O (stereo not drawn)
EC50: > 33.1 µM
IC50: > 33.1 µM

O=c1c(CCO)c(C2CC2)n2n1CCCC2
EC50: > 1120 µM
IC50: > 200 µM

Cc1ccc(C[N+](C)(C)N)cc1C
EC50: > 200 µM
IC50: > 200 µM

Cc1ccnc(NC(NC(=O)c2ccccc2)(C(F)(F)F)C(F)(F)F)c1
outcome: inactive

CC(C)(C)c1onc2c1C(=O)c1ccccc1-2
EC50: > 200 µM
IC50: 117 µM

CCOC(=O)C(Cc1ccc(O)cc1)NC(=O)C(N)CSSCC(N)C(=O)NC(Cc1ccc(O)cc1)C(=O)OCC (stereo not drawn) (I: H-Cys-Tyr-OEt / II: H-Cys-Tyr-OEt; disulfide I:1-II:1; configuration not given here)
EC50: > 200 µM
IC50: > 200 µM

O=S(=O)(O)CN(CS(=O)(=O)O)c1nc(N(CS(=O)(=O)O)CS(=O)(=O)O)nc(N(CS(=O)(=O)O)CS(=O)(=O)O)n1
EC50: > 100 µM
IC50: 15.5 µM

CN(C)Cc1[nH]c(=O)[nH]c(=O)c1O
EC50: > 200 µM
IC50: 23.4 µM

CN(C)CCCNC(=O)c1cc(NC(=O)c2cc(NC(=O)[C@@H]3C[C@H]3C(=O)Nc3cc(C(=O)Nc4cc(C(=O)NCCCN(C)C)n(C)c4)n(C)c3)cn2C)cn1C
outcome: inactive

COC(=O)c1c(CC(=O)O)oc2c1CCCC2
outcome: inactive

Cc1c(-c2ccc(-c3ccccc3F)cc2)nc2ccc(F)cc2c1C(=O)O
EC50: > 631 µM
IC50: 0.2 µM

Cc1nc2[nH]c(=O)n(OS(=O)(=O)c3ccccc3)c(=O)c2s1
EC50: > 200 µM
IC50: 35.5 µM

O=C1C=C(Nc2ccc([N+](=O)[O-])cc2)c2ccccc2C1=O
EC50: > 6.76 µM
IC50: > 6.76 µM

CC(=O)/C(=C/n1ccc(=O)[nH]c1=S)C(=O)Nc1ccc(Cl)cc1
EC50: > 200 µM
IC50: 155 µM

CSc1nc(Cl)c2c(n1)Sc1nc3cc4c(cc3n1C2O)OCCO4 (stereo not drawn)
EC50: > 0.2 µM
IC50: 0.0794 µM

COc1ccc(C2c3cc4c(cc3OC3(OC)COC(=O)C23)OCO4)c(OC)c1 (stereo not drawn)
EC50: > 100 µM
IC50: 4.68 µM

O=C(O)CN=c1c2ccccc2n(O)c2ccccc12
outcome: inactive

CC1(C)SC2C(NC(=O)C(C(=O)O)c3ccccc3)C(=O)N2C1C(=O)O (stereo not drawn)
EC50: > 200 µM
IC50: > 200 µM

CCSC(=O)OCn1ncc2cc([N+](=O)[O-])ccc21
EC50: > 200 µM
IC50: 95.5 µM

CCc1cccc(C(C)CC)c1NC(=O)C(=O)Cc1nc2ccccc2o1 (stereo not drawn)
EC50: > 347 µM
IC50: > 347 µM

CN1CCN(C)C12C=c1ccccc1=CC21CC1
outcome: inactive

COc1ccc(C2C(Cl)C(=O)N2NC(=O)Cc2ccccc2)cc1OC (stereo not drawn)
EC50: > 95.5 µM
IC50: > 95.5 µM

— PubChem BioAssay AID179 (DTP/NCI, 2004)
